Residues, ends and D or L forms follow the SMILES beside them.
Key:
[1] = test system: human non-small cell lung cancer cell lines (H2444); experiment: Antitumor activity evaluation test (2), cell viability by Cell Counting Kit-8 (WST-8); type: cell-based; conditions: H2444 versus normal MCF-12F cells
Protocol: (§1) A2058 cells and MCF-12F cells were cultured and prepared so that the number of cells per well in a 96-well plate was about 5×10^3. An amount of the culture medium in this case was 100 μL per well.
(§2) Next, the 96-well plate was placed in a CO2 incubator and pre-incubated under conditions of 37° C. and 5% CO2 for about 1 day (21 hours to 24 hours).
(§3) Then, peptide-containing test culture mediums for each concentration were prepared so that the concentrations of the sample peptides to be evaluated were 12.5 μM and 25 μM, and supplied to wells (that is, wells after the pre-incubation) in which 90μL of cells to be evaluated were cultured in each well. Then, the 96-well plate was returned to the CO2 incubator and incubated under conditions of 37° C. and 5% CO2 for 48 hours.
(§4) Here, the number of test wells (n) at peptide concentrations in peptide addition test groups was set to 3. Therefore, the value of the result shown in the following table is an average value of the results obtained in three test wells. First, the cell viability (%) was determined as follows. […]
(§5) After the incubation was completed, the cell culture solution to which the reagent was added was collected and the cell viability (%) was evaluated according to a colorimetric method in which an absorbance at a wavelength of 450 nm (value corrected by the absorbance at a wavelength of 650 nm: A450-A650) was measured based on the reduction of the tetrazolium salt. Specifically, a measured value (measured absorbance) of a comparative test group in which the above incubation was performed for 48 hours simply in a culture medium containing no peptide was set as a cell viability of 100%, and the cell viability (%) was calculated from the measured absorbance of each test cell line as a relative value.
(§6) The antitumor activity and antitumor cell selective antitumor activity of Samples 2 and 6 of Test Example 1, with respect to a plurality of types of human-derived cultured tumor cells were evaluated. […]
(§7) Then, the cell viability was calculated in the same processes as in Test Example 2. […]

[2] = as above; type: cell-based, human; conditions: peptide 25 μM, 48 hours, relative to no peptide = 100%; read-out: cell viability of H2444 cells
Protocol: as §1, §2, §3, §4, §5, §6, §7

[3] = test system: human melanoma (A2058) cell lines; experiment: Antitumor activity evaluation test (1), cell viability by Cell Counting Kit-8 (WST-8); type: cell-based; conditions: 48 hours, A2058 versus normal MCF-12F cells
Protocol: (§8) The antitumor activity of the sample peptides synthesized in Test Example 1 was evaluated using human-derived cultured tumor cells as targets.
(§9) Specifically, currently commercially available human melanoma (A2058) cell lines were used as test tumor cells. In addition, a normal human mammary epithelial cell culture line (MCF-12F) was used for comparison. Here, culture solutions of respective cells are as follows. • (1) A2058 cells:
(§10) DMEM culture medium including 2 mM L-glutamine, 0.1 mM of non-essential amino acids, 50 units/mL of penicillin, 50 μg/mL of streptomycin, and 10% fetal bovine serum (FBS) (product, commercially available from Wako Pure Chemical Industries, Ltd.). • (2) MCF-12F cells:
(§11) DMEM/F12 culture medium including 20 ng/mL of recombinant EGF, 10 μg/mL of insulin, 0.5 μg/mL of hydrocortisone, and 10% FBS (product, commercially available from Wako Pure Chemical Industries, Ltd.).
as §1, §2, §3
(§12) Here, the number of test wells (n) at peptide concentrations in peptide addition test groups was set to 3. Therefore, the value of the result shown in the following table is an average value of the results obtained in three test wells. First, the cell viability (%) was determined as follows.
(§13) After the incubation for 48 hours was completed, the culture medium in each well was replaced with 100 μL of a fresh culture medium containing no peptide, and additionally, 10μL of a cell proliferation measurement reagent “Cell Counting Kit-8” (product, commercially available from Dojindo Molecular Technologies, Inc.) containing a “water-soluble tetrazolium salt (WST-8)” as a coloring reagent was added to each well. Then, the 96-well plate was returned to the CO2 incubator and incubated under conditions of 37° C., and 5% CO2 for 1.5 hours to 2 hours.
as §5
(§14) Specifically, a value (value multiplied by 100 for convenience) obtained by dividing the cell viability of target tumor cells (here, A2058 cells) when the sample peptides were added at a concentration of 12.5 μM or 25 μM measured as described above by the cell viability of comparative normal cells (here, MCF-12F cells) measured under the same conditions, that is,
(§15) {(A2058 cell viability)/(MCF-12F cell viability)}×100 was calculated as a specific cell viability of the tumor cells, and the test tumor cells selective antitumor activity with respect to normal cells was evaluated using such a specific cell viability as an index.

[4] = as above; type: cell-based, human; conditions: peptide 25 μM, 48 hours, relative to culture medium containing no peptide = 100%; read-out: A2058 cell viability (survival rate)
Protocol: as §8, §9, §10, §11, §1, §2, §3, §12, §13, §5, §14, §15

[5] = test system: human colorectal cancer cell lines (SW480); experiment: Antitumor activity evaluation test (2), cell viability by Cell Counting Kit-8 (WST-8); type: cell-based; conditions: SW480 versus normal MCF-12F cells
Protocol: as §1, §2, §3, §12, §13, §5
(§16) The antitumor activity and antitumor cell selective antitumor activity of Samples 2 and 6 of Test Example 1, with respect to a plurality of types of human-derived cultured tumor cells were evaluated.
(§17) Specifically, currently commercially available human melanoma cell lines (SK-MELS), human non-small cell lung cancer cell lines (H2444), and human colorectal cancer cell lines (SW480) were used as test tumor cells. In addition, the above MCF-12F cells were used as normal cells for comparison.
(§18) Leibovitz's L-15 culture medium including 100 unit/mL of penicillin, 100 μg/mL of streptomycin, and 10% FBS (product, commercially available from Gibco)
(§19) Here, in the evaluation test using SW480 cell lines, the cells were cultured under conditions of 37° C. and without CO2.
(§20) Then, the cell viability was calculated in the same processes as in Test Example 2. Here, in this test example, the antitumor activity of Sample 6 with respect to SK-MELS cells, the antitumor activity of Sample 2 with respect to H2444 cells, and the antitumor activity of Sample 2 and Sample 6 with respect to SW480 cells were evaluated.
(§21) Next, a specific cell viability was calculated in the same processes as in Test Example 2. That is,
(§22) {(Test tumor cell survival rate)/(MCF-12F cell viability)}×100 was calculated as a specific cell viability of the tumor cells, and a test tumor cells selective antitumor activity with respect to normal cells was evaluated using such a specific cell viability as an index. […]

[6] = as above; type: cell-based, human; conditions: peptide 25 μM, 48 hours, 37° C. without CO2, relative to no peptide = 100%; read-out: cell viability of SW480 cells
Protocol: as §1, §2, §3, §12, §13, §5, §16, §17, §18, §19, §20, §21, §22

[7] = test system: human melanoma cell lines (SK-MELS); experiment: as above; type: cell-based; conditions: SK-MEL5 versus normal MCF-12F cells
Protocol: as §1, §2, §3, §4, §5, §6, §7

[8] = as above; type: cell-based, human; conditions: peptide 25 μM, 48 hours, relative to no peptide = 100%; read-out: cell viability of SK-MELS cells
Protocol: as §1, §2, §3, §4, §5, §6, §7

Structure (SMILES): CC[C@H](C)[C@H](NC(=O)[C@H](CC(N)=O)NC(=O)[C@@H](NC(=O)[C@@H](N)CC(C)C)C(C)C)C(=O)N[C@H](C(=O)N[C@@H](CC(C)C)C(=O)N[C@@H](CO)C(=O)N[C@@H](CC(=O)O)C(=O)N[C@@H](CC(C)C)C(=O)N[C@@H](CC(C)C)C(=O)N[C@H](C(=O)NCC(=O)N[C@@H](C)C(=O)N[C@@H](C)C(=O)N[C@@H](Cc1ccc(O)cc1)C(=O)N[C@@H](CC(C)C)C(=O)N[C@@H](C)C(=O)N[C@@H](CC(N)=O)C(=O)N[C@H](C(=O)N[C@@H](CC(C)C)C(=O)N[C@@H](CC(C)C)C(=O)N[C@@H](CCCNC(=N)N)C(=O)N[C@@H](CCCCN)C(=O)N[C@@H](CCCCN)C(=O)N[C@@H](CCCNC(=N)N)C(=O)N[C@@H](CCCNC(=N)N)C(=O)N[C@@H](CCC(N)=O)C(=O)N[C@@H](CCCNC(=N)N)C(=O)N[C@@H](CCCNC(=N)N)C(=O)N[C@@H](CCCNC(=N)N)C(N)=O)C(C)C)[C@@H](C)O)[C@@H](C)O [Sample 2] (H-LVNITLSDLLTGAAYLANVLLRKKRRQRRR-NH2; N-terminus assumed)
- Specific cell viability {(Test tumor cell survival rate)/(MCF-12F cell viability)}×100 ([1]; peptide 12.5 μM): 0.22
- Specific cell viability {(Test tumor cell survival rate)/(MCF-12F cell viability)}×100 ([1]; peptide 25 μM): 0.41
- viability [2]: 2.1%
- Specific cell viability {(A2058 cell viability)/(MCF-12F cell viability)}×100 ([3]; peptide 12.5 μM): 4.79
- Specific cell viability {(A2058 cell viability)/(MCF-12F cell viability)}×100 ([3]; peptide 25 μM): 1.96
- viability [4]: 0.1%
- Specific cell viability {(Test tumor cell survival rate)/(MCF-12F cell viability)}×100 ([5]; peptide 12.5 μM): 2.98
- Specific cell viability {(Test tumor cell survival rate)/(MCF-12F cell viability)}×100 ([5]; peptide 25 μM): 0.45
- viability [6]: 2.3%

Structure (SMILES): CC[C@H](C)[C@H](NC(=O)[C@H](C)NC(=O)[C@H](CC(C)C)NC(=O)[C@H](CC(C)C)NC(=O)[C@H](CO)NC(=O)[C@H](CC(C)C)NC(=O)[C@@H](NC(=O)[C@H](CO)NC(=O)[C@H](C)NC(=O)[C@@H](NC(=O)[C@H](CC(C)C)NC(=O)[C@H](C)NC(=O)[C@@H](NC(=O)[C@H](Cc1ccccc1)NC(=O)[C@@H](NC(=O)CNC(=O)CNC(=O)[C@@H](N)CCC(=O)O)C(C)C)C(C)C)[C@@H](C)O)C(C)C)C(=O)N[C@@H](C)C(=O)N[C@@H](CC(C)C)C(=O)N[C@@H](CCC(=O)O)C(=O)N[C@@H](CCCNC(=N)N)C(=O)N[C@@H](CCCCN)C(=O)N[C@@H](CCCCN)C(=O)N[C@@H](CCCNC(=N)N)C(=O)N[C@@H](CCCNC(=N)N)C(=O)N[C@@H](CCC(N)=O)C(=O)N[C@@H](CCCNC(=N)N)C(=O)N[C@@H](CCCNC(=N)N)C(=O)N[C@@H](CCCNC(=N)N)C(N)=O [Sample 5] (H-EGGVFVALTASVLSLLAIALERKKRRQRRR-NH2; N-terminus assumed)
- Specific cell viability {(A2058 cell viability)/(MCF-12F cell viability)}×100 ([3]; peptide 12.5 μM): 88.08
- Specific cell viability {(A2058 cell viability)/(MCF-12F cell viability)}×100 ([3]; peptide 25 μM): 10.09
- viability [4]: 5.5%

Structure (SMILES): CSCC[C@H](NC(=O)[C@H](C)NC(=O)[C@@H](N)CC(C)C)C(=O)N[C@@H](C)C(=O)N[C@@H](C)C(=O)N[C@@H](C)C(=O)N[C@@H](C)C(=O)N[C@@H](Cc1c[nH]c2ccccc12)C(=O)NCC(=O)N[C@H](C(=O)N[C@@H](CO)C(=O)N[C@@H](CC(C)C)C(=O)N[C@@H](CC(C)C)C(=O)N[C@@H](CC(C)C)C(=O)NCC(=O)N[C@@H](CC(C)C)C(=O)N[C@@H](CC(C)C)C(=O)N1CCC[C@H]1C(=O)N[C@@H](C)C(=O)N[C@@H](CC(C)C)C(=O)NCC(=O)N[C@@H](CCCNC(=N)N)C(=O)N[C@@H](CCCCN)C(=O)N[C@@H](CCCCN)C(=O)N[C@@H](CCCNC(=N)N)C(=O)N[C@@H](CCCNC(=N)N)C(=O)N[C@@H](CCC(N)=O)C(=O)N[C@@H](CCCNC(=N)N)C(=O)N[C@@H](CCCNC(=N)N)C(=O)N[C@@H](CCCNC(=N)N)C(N)=O)C(C)C [Sample 6] (H-LAMAAAAWGVSLLLGLLPALGRKKRRQRRR-NH2; N-terminus assumed)
- Specific cell viability {(A2058 cell viability)/(MCF-12F cell viability)}×100 ([3]; peptide 12.5 μM): 40
- Specific cell viability {(A2058 cell viability)/(MCF-12F cell viability)}×100 ([3]; peptide 25 μM): 5.88
- viability [4]: 0.5%
- Specific cell viability {(Test tumor cell survival rate)/(MCF-12F cell viability)}×100 ([5]; peptide 12.5 μM): 1.14
- Specific cell viability {(Test tumor cell survival rate)/(MCF-12F cell viability)}×100 ([5]; peptide 25 μM): 2.38
- viability [6]: 20.2%
- Specific cell viability {(Test tumor cell survival rate)/(MCF-12F cell viability)}×100 ([7]; peptide 12.5 μM): 0.25
- Specific cell viability {(Test tumor cell survival rate)/(MCF-12F cell viability)}×100 ([7]; peptide 25 μM): 0.22
- viability [8]: 1.9%
